Assay results from BindingDB's records for doi:10.7270/Q25H7DRT (Nmmlsc, 2010).

Target: T1, Citrate synthase, peroxisomal [1-24] (Saccharomyces cerevisiae, UniProt P08679)
T1 construct: 1-24
Experiment: CIT2-GFP expression modulators in yeast, dose response, flow cytometry, MLPCN hits (AID 2744)

T1 sequence (P08679 1-24): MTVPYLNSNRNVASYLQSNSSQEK

Row | EC50 [µM] | Compound
1 | > 33 | ClC(Cl)(c1nnnn1-c1ccccc1)c1nnnn1-c1ccccc1 [SMR000173835]
2 | > 33 | O=C(Nc1ccccc1)ON=C1CCCC1 [cyclopentanone O-(anilinocarbonyl)oxime]
